According to patent US20150105252A1, “SUBSTITUTED PYRAZOLES AS HERBICIDES” (E I DU PONT DE NEMOURS AND COMPANY, priority 2013, published 2015):

Columns and labels:
barley, winter = assay: Test D postemergence; assay type: in vivo, Hordeum vulgare; conditions: scale 0 to 100
Outline: (§1)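 Formulation was a non-phytotoxic solvent mixture plus surfactant, applied either to soil at planting (silt loam, preemergence) or to foliage of 2–18 cm plants (postemergence). Visual evaluation versus controls followed at 14–21 days, scored 0–100.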

barley, spring = assay: Test D postemergence; assay type: in vivo, Hordeum vulgare; conditions: scale 0 to 100
Outline: as §1

wheat, spring = assay: Test D postemergence; assay type: in vivo, Triticum aestivum; conditions: scale 0 to 100
Outline: as §1

wheat, winter = assay: Test D postemergence; assay type: in vivo, Triticum aestivum; conditions: scale 0 to 100
Outline: as §1

bromegrass, downy = assay: Test D preemergence; assay type: in vivo, Bromus tectorum; conditions: scale 0 to 100
Outline: as §1

field bindweed = assay: Test F preemergence; assay type: in vivo, Convolvulus arvensis
From the text: (§2) Seeds of plant species selected from corn (Zea mays), soybean (Glycine max), velvetleaf (Abutilon theophrasti), lambsquarters (Chenopodium album), wild poinsettia (Euphorbia heterophylla), pigweed, palmer (palmer pigweed, Amaranthus palmeri), common waterhemp (Amaranthus rudis), surinam grass (Brachiaria decumbens), large crabgrass (Digitaria sanguinalis), crabgrass, Brazil (Brazilian crabgrass, Digitaria horizontalis), fall panicum (Panicum dichotomiflorum), giant foxtail (Setaria faberii), green foxtail (Setaria viridis), goosegrass (Eleusine indica), johnsongrass (Sorghum halepense), common ragweed (Ambrosia elation), barnyardgrass (Echinochloa crus-galli), southern sandbur (Cenchrus echinatus), arrowleaf sida (Sida rhombifolia), Italian ryegrass (Lolium multiflorum), dayflower, VA (Virginia (VA) dayflower, Commelina virginica), field bindweed (Convolvulus arvensis), cocklebur (common cocklebur, Xanthium strumarium), morningglory (Ipomoea coccinea), nightshade (eastern black nightshade, Solanum ptycanthum), kochia (Kochia scoparia), yellow nutsedge (Cyperus esculentus), and hairy beggarticks (Bidens pilosa), were planted into a silt loam soil and treated preemergence with test chemicals formulated in a non-phytotoxic solvent mixture which included a surfactant.
(§3) At the same time, plants from these crop and weed species and also horseweed (Canada horseweed, Conyza canadensis), smartweed (ladysthumb smartweed, Polygonum persicaria), waterhemp_RES1, (ALS & Triazine resistant common waterhemp, Amaranthus rudis), and waterhemp_RES2, (ALS & HPPD resistant common waterhemp, Amaranthus rudis) were treated with postemergence applications of test chemicals formulated in the same manner. Plants ranged in height from 2 to 18 cm for postemergence treatments (1- to 4-leaf stage). Treated plants and controls were maintained in a greenhouse for 14 to 21 days, after which time all species were compared to controls and visually evaluated. Plant response ratings, summarized in Table F, are based on a scale of 0 to 100 where 0 is no effect and 100 is complete control. A dash (-) response means no test result.

common waterhemp = assay: Test F preemergence; assay type: in vivo, Amaranthus rudis
From the text: as §2, §3

barnyardgrass = assay: Test F preemergence; assay type: in vivo, Echinochloa crus-galli
Outline: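 Planting in silt loam, then preemergence treatment; postemergence treatment in parallel on 1- to 4-leaf seedlings (2–18 cm). Compound carried in a non-phytotoxic solvent mixture with surfactant. Greenhouse, 14–21 days; visual comparison with controls, scored 0 (none) to 100 (full control).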

lambsquarters = assay: Test D postemergence; assay type: in vivo, Chenopodium album; conditions: scale 0 to 100
Outline: as §1

oat, wild = assay: Test D postemergence; assay type: in vivo, Avena fatua; conditions: scale 0 to 100
Outline: as §1

giant foxtail = assay: Test F preemergence; assay type: in vivo, Setaria faberii
From the text: as §2, §3

oilseed rape = assay: Test D postemergence; assay type: in vivo, Brassica napus; conditions: scale 0 to 100
From the text: Seeds of plant species selected from bluegrass (annual bluegrass, Poa annua), blackgrass (Alopecurus myosuroides), canarygrass (littleseed canarygrass, Phalaris minor), chickweed (common chickweed, Stellaria media), galium (catchweed bedstraw, Galium aparine), bromegrass, downy (downy bromegrass, Bromus tectorum), field poppy (Papaver rhoeas), field violet (Viola arvensis), foxtail, green (green foxtail, Setaria viridis), deadnettle (henbit deadnettle, Lamium amplexicaule), ryegrass, Italian (Italian ryegrass, Lolium multiflorum), kochia (Kochia scoparia), lambsquarters (Chenopodium album), oilseed rape (Brassica napus), pigweed (redroot pigweed, Amaranthus retroflexus), chamomile (scentless chamomile, Matricaria inodora), speedwell (bird's-eye speedwell, Veronica persica), barley, spring (spring barley, Hordeum vulgare), wheat, spring (spring wheat, Triticum aestivum), buckwheat, wild (wild buckwheat, Polygonum convolvulus), mustard, wild (wild mustard, Sinapis arvensis), oat, wild (wild oat, Avena fatua), radish, wild (wild radish, Raphanus raphanistrum), windgrass (Apera spica-venti), Russian thistle (Salsola kali), barley, winter (winter barley, Hordeum vulgare), and wheat, winter (winter wheat, Triticum aestivum) were planted into a silt loam soil and treated preemergence with test chemicals formulated in a non-phytotoxic solvent mixture which included a surfactant.
At the same time, these species were planted in pots containing Redi-Earth® planting medium (Scotts Company, 14111 Scottslawn Road, Marysville, Ohio 43041) comprising spaghnum peat moss, vermiculite, wetting agent and starter nutrients and treated with postemergence applications of the test chemicals formulated in the same manner. Plants ranged in height from 2 to 18 cm (1- to 4-leaf stage). Treated plants and controls were maintained in a controlled growth environment for 14 to 21 days after which time all species were compared to controls and visually evaluated. Plant response ratings, summarized in Table D, are based on a scale of 0 to 100 where 0 is no effect and 100 is complete control. A dash (-) response means no test result.

green foxtail = assay: Test F preemergence; assay type: in vivo, Setaria viridis
From the text: as §2, §3

[1] = Preemergence, 31 g ai/ha, scale 0 to 100
[2] = Preemergence, 62 g ai/ha, scale 0 to 100
[3] = Preemergence, 125 g ai/ha, scale 0 to 100
[4] = preemergence, 8 g ai/ha, scale 0 to 100, 100 is complete control
[5] = preemergence, 16 g ai/ha, scale 0 to 100, 100 is complete control

CCc1cc(C(=O)NCC(F)(F)F)nn1Cc1ccnc(C(F)(F)F)c1 [Compound 78, 5-ethyl-N-(2,2,2-trifluoroethyl)-1-[[(2-trifluoromethyl)-4-pyridinyl]methyl]-1H-pyrazole-3-carboxamide]
Barley, Winter plant response rating (barley, winter; Postemergence, 31 g ai/ha): 5
Barley, Winter plant response rating (barley, winter; Postemergence, 125 g ai/ha): 15
Barley, Winter plant response rating (barley, winter; Postemergence, 250 g ai/ha): 25
Barley, Winter plant response rating (barley, winter; postemergence, 62 g ai/ha): 10
Barley, Spring plant response rating (barley, spring; Postemergence, 31 g ai/ha): 0
Barley, Spring plant response rating (barley, spring; Postemergence, 125 g ai/ha): 10
Barley, Spring plant response rating (barley, spring; Postemergence, 250 g ai/ha): 30
Barley, Spring plant response rating (barley, spring; postemergence, 62 g ai/ha): 0
Wheat, Spring plant response rating (wheat, spring; Postemergence, 31 g ai/ha): 0
Wheat, Spring plant response rating (wheat, spring; Postemergence, 125 g ai/ha): 15
Wheat, Spring plant response rating (wheat, spring; Postemergence, 250 g ai/ha): 25
Wheat, Spring plant response rating (wheat, spring; postemergence, 62 g ai/ha): 5
Wheat, Winter plant response rating (wheat, winter; Postemergence, 31 g ai/ha): 10
Wheat, Winter plant response rating (wheat, winter; Postemergence, 125 g ai/ha): 25
Wheat, Winter plant response rating (wheat, winter; Postemergence, 250 g ai/ha): 55
Wheat, Winter plant response rating (wheat, winter; postemergence, 62 g ai/ha): 15
Plant response rating, Bromegrass, Downy (bromegrass, downy; 31 g ai/ha): 10
Plant response rating, Bromegrass, Downy (bromegrass, downy; 62 g ai/ha): 20
Plant response rating, Bromegrass, Downy (bromegrass, downy; 125 g ai/ha): 70
Plant response rating, Bromegrass, Downy (bromegrass, downy; 250 g ai/ha): 75
Plant response rating, Field Bindweed (field bindweed; [1]): 100
Plant response rating, Field Bindweed (field bindweed; [2]): 90
Plant response rating, Field Bindweed (field bindweed; [3]): 95
Plant response rating, Field Bindweed (field bindweed; [4]): 0
Plant response rating, Field Bindweed (field bindweed; [5]): 0
Plant response rating, Common Waterhemp (common waterhemp; [1]): 100
Plant response rating, Common Waterhemp (common waterhemp; [2]): 100
Plant response rating, Common Waterhemp (common waterhemp; [3]): 100
Plant response rating, Common Waterhemp (common waterhemp; [4]): 65
Plant response rating, Common Waterhemp (common waterhemp; [5]): 100
Plant response rating, Barnyardgrass (barnyardgrass; [1]): 35
Plant response rating, Barnyardgrass (barnyardgrass; [2]): 98
Plant response rating, Barnyardgrass (barnyardgrass; [3]): 100
Plant response rating, Barnyardgrass (barnyardgrass; [4]): 0
Plant response rating, Barnyardgrass (barnyardgrass; [5]): 25
Lambsquarters plant response rating (lambsquarters; Postemergence, 31 g ai/ha): 20
Lambsquarters plant response rating (lambsquarters; Postemergence, 125 g ai/ha): 80
Lambsquarters plant response rating (lambsquarters; Postemergence, 250 g ai/ha): 80
Lambsquarters plant response rating (lambsquarters; postemergence, 62 g ai/ha): 60
Oat, Wild plant response rating (oat, wild; Postemergence, 31 g ai/ha): 15
Oat, Wild plant response rating (oat, wild; Postemergence, 125 g ai/ha): 25
Oat, Wild plant response rating (oat, wild; Postemergence, 250 g ai/ha): 40
Oat, Wild plant response rating (oat, wild; postemergence, 62 g ai/ha): 20
Plant response rating, Giant Foxtail (giant foxtail; [1]): 100
Plant response rating, Giant Foxtail (giant foxtail; [2]): 100
Plant response rating, Giant Foxtail (giant foxtail; [3]): 100
Plant response rating, Giant Foxtail (giant foxtail; [4]): 5
Plant response rating, Giant Foxtail (giant foxtail; [5]): 50
Oilseed Rape plant response rating (oilseed rape; Postemergence, 31 g ai/ha): 35
Oilseed Rape plant response rating (oilseed rape; Postemergence, 125 g ai/ha): 60
Oilseed Rape plant response rating (oilseed rape; Postemergence, 250 g ai/ha): 80
Oilseed Rape plant response rating (oilseed rape; postemergence, 62 g ai/ha): 50
Plant response rating, Green Foxtail (green foxtail; [1]): 60
Plant response rating, Green Foxtail (green foxtail; [2]): 100
Plant response rating, Green Foxtail (green foxtail; [3]): 100
Plant response rating, Green Foxtail (green foxtail; [4]): 10
Plant response rating, Green Foxtail (green foxtail; [5]): 60
